Experimental findings from patent US12116358B2, “Substituted indoles and methods of use thereof” (EPIZYME, INC., priority 2018, dated 2024) are described below.

Assay [1] concerns the target T1, SETD2(1434-1711) (Homo sapiens, UniProt Q9BYW2).
T1 construct: SETD2 (1434-1711) Assay; catalogue N/A
T1 sequence (Q9BYW2 1434-1711): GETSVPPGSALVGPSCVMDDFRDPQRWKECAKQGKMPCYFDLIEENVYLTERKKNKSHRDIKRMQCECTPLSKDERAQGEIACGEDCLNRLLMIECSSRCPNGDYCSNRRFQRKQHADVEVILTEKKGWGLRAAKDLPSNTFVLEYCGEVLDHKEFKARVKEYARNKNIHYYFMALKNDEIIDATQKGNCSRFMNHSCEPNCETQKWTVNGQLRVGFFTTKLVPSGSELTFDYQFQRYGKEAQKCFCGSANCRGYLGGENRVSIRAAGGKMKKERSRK
The assay is described as follows: SETD2 (1434-1711) assay. Type of assay: biochemical. The note with it: read-out: SETD2 (1434-1711).

For assay [2], the system named is H3K36me3 in A549 cells. The assay is described as follows: In-Cell Western (ICW) assay of SETD2 inhibitors (A549 assay). The format is cell-based, human. The following applies: A549 cells, read-out: SETD2 A549. The essentials: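 A549 cells seeded at 4,000/well onto compound and incubated 3 days at 37° C. Methanol-fixed cells stained overnight at 4° C with anti-H3K36me3 (1:1000), then IRDye 800CW secondary with DRAQ5 DNA counterstain. Plates read by Licor imaging at 700 and 800 channels.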

Like-named read-outs stand apart in the source and are kept apart here.

Turning to `Cc1ccc(F)c2cc(C(=O)N[C@@H]3CCC[C@@H](N4CCN(C(=O)CN(C)C)CC4)C3)[nH]c12` [compound 855], the IC50 in assay [1] is 4700 nM; in assay [2] it was more than 2000 nM.

Regarding `Cc1cccnc1C(NC(=O)c1cc2cccc(CO)c2[nH]1)C1CC1` (stereo not drawn) [compound 574], the values for the IC50 in assay [1] and in assay [2] (Homo sapiens) were 17300 nM and more than 25000 nM, respectively.

On to `Cc1cccnc1C(CCC(=O)N1CCn2cncc2C1)NC(=O)c1cc2cccc(C)c2[nH]1` (stereo not drawn) [compound 460], for which the IC50 in assay [1] turned out to be 4500 nM; in assay [2] (Homo sapiens), 6200 nM.

Turning to `Cc1ccc(F)c2cc(C(=O)N[C@@H]3CCC[C@H](N4CCC5(CCC(=O)N5)CC4)C3)[nH]c12` [compound 938], the figures for the IC50 in assay [1] and in assay [2] (Homo sapiens) were 30 nM and 500 nM, respectively.

As for `Cc1cccc2cc(C(=O)NC3C(=O)NCCc4ccccc43)[nH]c12` (stereo not drawn) [compound 482], the values for the IC50 in assay [1] and in assay [2] were 2200 nM and 10200 nM, respectively.

Take `CC(=O)N(C)C1CCN(c2cccc(NC(=O)c3cc4c(F)ccc(C)c4[nH]3)c2)CC1` [compound 78]: the IC50 in assay [1] was 40 nM; in assay [2], 200 nM.

As for `Cc1ccc(F)c2cc(C(=O)Nc3cccc(N4CC(F)C(N(C)C)C4)c3)[nH]c12` (stereo not drawn) [compound 63], the IC50 in assay [1] came to 20 nM; in assay [2], 100 nM.

Take `Cc1ccc(F)c2cc(C(=O)NC3CCCC(N4CCN5C(=O)CN(C)C(=O)C5C4)C3)[nH]c12` (stereo not drawn) [compound 1103]: the IC50 in assay [1] and in assay [2] was 100 nM throughout.

As to `Cc1cccnc1C(CCC(=O)N1CCNCC1)NC(=O)c1cc2cccc(C)c2[nH]1` (stereo not drawn) [compound 572], the IC50 in assay [1] is 16600 nM; in assay [2] (Homo sapiens), more than 25000 nM.

For the compound `Cc1ccc(F)c2cc(C(=O)N[C@@H]3CCC[C@H](N4CCN(C(=O)C5COC5)CC4)C3)[nH]c12` [compound 918], the IC50 in assay [1] amounted to 20 nM; in assay [2] (Homo sapiens), 100 nM.

Consider `Cc1ccc(F)c2cc(C(=O)Nc3cccc(N4CC[C@H](N(C)C)C4)c3)[nH]c12` [compound 102], for which the IC50 in assay [1] was found to be 20 nM; in assay [2], 200 nM.

Regarding `Cc1cccc2cc(C(=O)Nc3cccc(N4CCN(CCN)CC4)c3)[nH]c12` [compound 467], the IC50 came out at 400 nM in assay [1] and 7300 nM in assay [2] (Homo sapiens).

With `CC(=O)N1CCC2(CC1)CN(c1cc(F)cc(NC(=O)c3cc4c(F)ccc(C)c4[nH]3)c1)C2` [compound 19], the IC50 in assay [1] was determined as 10 nM; in assay [2], 60 nM.

For `Cc1ccc(F)c2cc(C(=O)Nc3cccc(N4CC5CC4CO5)c3)[nH]c12` (stereo not drawn) [compound 284], the IC50 in assay [1] stood at 200 nM; in assay [2] (Homo sapiens), 1000 nM.

For the compound `Cc1cccc2cc(C(=O)NCC(C)c3ccccc3N3CCOCC3)[nH]c12` (stereo not drawn) [compound 483], the IC50 in assay [1] was 4100 nM; in assay [2], 10300 nM.

For the compound `Cc1ccc(F)c2cc(C(=O)N[C@@H]3CCC[C@H](N4CCC5(CC4)CNC(=O)C5)C3)[nH]c12` [compound 928], the IC50 in assay [1] worked out at 30 nM; in assay [2] (Homo sapiens), 900 nM.

Turning to `Cc1cccnc1C(CCCN1CCNCC1)NC(=O)c1cc2cccc(C)c2[nH]1` (stereo not drawn) [compound 567], the IC50 is 13600 nM in assay [1] and more than 25000 nM in assay [2] (Homo sapiens).

Consider `Cc1cccc2cc(C(=O)NCCc3ccccc3N3CCOC(CN(C)C)C3)[nH]c12` (stereo not drawn) [compound 566], for which the IC50 was 12900 nM in assay [1] and more than 25000 nM in assay [2] (Homo sapiens).

As to `CC(=NC#N)N1CCN(C2CCCC(NC(=O)c3cc4c(F)ccc(C)c4[nH]3)C2)CC1` (stereo not drawn) [compound 1148], the IC50 was 900 nM in assay [1] and more than 2000 nM in assay [2].

Turning to `Cc1cccc2cc(C(=O)Nc3cccc(N4CCN(S(=O)(=O)C5CCC(N)CC5)CC4)c3)[nH]c12` (stereo not drawn) [compound 429], the IC50 stood at 100 nM in assay [1] and 4300 nM in assay [2] (Homo sapiens).

As for `Cc1ccc(F)c2cc(C(=O)N[C@@H]3CCC[C@H](N4CCn5c(cnc5C(F)(F)F)C4)C3)[nH]c12` [compound 993], the IC50 came out at 40 nM in assay [1] and 200 nM in assay [2] (Homo sapiens).

`Cc1ccc(F)c2cc(C(=O)NC3CCCC(N4CCC(N(C)C(=O)C(C)(C)O)C4)C3)[nH]c12` (stereo not drawn) [compound 1147]: the IC50 in assay [1] was 1200 nM; in assay [2], more than 2000 nM.

`CC(=O)N(C)C1CCCN(c2cccc(NC(=O)c3cc4c(F)ccc(C)c4[nH]3)c2)C1` (stereo not drawn) [compound 42]: the results for the IC50 in assay [1] and in assay [2] were 20 nM and 100 nM, respectively.

With `Cc1ccc(F)c2cc(C(=O)NC(C(=O)NCc3ccccc3)c3ccccn3)[nH]c12` (stereo not drawn) [compound 550], the IC50 is 6500 nM in assay [1] and more than 25000 nM in assay [2].

On to `Cc1ccc(F)c2cc(C(=O)N[C@@H]3CCCC(N4CCN(CC(=O)N(C)C)CC4)C3)[nH]c12` (stereo partly drawn) [compound 859], for which the IC50 in assay [1] was found to be 500 nM; in assay [2], 1900 nM.

In the case of `CC(=O)N1CCC(c2cccc(NC(=O)c3cc4c(F)ccc(C)c4[nH]3)c2)C1` (stereo not drawn) [compound 73], the IC50 turned out to be 40 nM in assay [1] and 200 nM in assay [2].

For `COc1cccc(CNCC(O)COc2cnc(C(NC(=O)c3cc4cccc(C)c4[nH]3)C3CC3)c(C)c2)c1` (stereo not drawn) [compound 461], the IC50 in assay [1] amounted to 500 nM; in assay [2], 6300 nM.

For `Cc1cccnc1C(NC(=O)c1cc2cncc(C)c2[nH]1)C1CC1` (stereo not drawn) [compound 608], the results for the IC50 in assay [1] and in assay [2] were more than 50000 nM and more than 25000 nM, respectively.

On to `Cc1ccc(F)c2cc(C(=O)Nc3cccc(-c4cc(N)on4)c3)[nH]c12` [compound 502], for which the IC50 is 500 nM in assay [1] and 14700 nM in assay [2].

In the case of `Cc1cccc2cc(C(=O)NCC3CCCCC3N3CCOCC3)[nH]c12` (stereo not drawn) [compound 508], the IC50 is 10400 nM in assay [1] and 15200 nM in assay [2].

On to `Cc1ccc(F)c2cc(C(=O)NC3CCCC(N4CCC(N(C)C(=O)CO)C4)C3)[nH]c12` (stereo not drawn) [compound 983], for which the IC50 is 20 nM in assay [1] and 100 nM in assay [2].

Take `Cc1ccc(F)c2cc(C(=O)N[C@@H]3CCC[C@H](N4CCCNC(=O)C4)C3)[nH]c12` [compound 823]: the IC50 in assay [1] and in assay [2] was 400 nM in each case.

For the compound `Cc1ccc(F)c2cc(C(=O)Nc3cccc(-c4nnco4)c3)[nH]c12` [Cpd. No. 60, N-(3-(1,3,4-oxadiazol-2-yl)phenyl)-4-fluoro-7-methyl-1H-indole-2-carboxamide], the IC50 in assay [1] came to 30 nM; in assay [2] (Homo sapiens), 100 nM.

Regarding `Cc1cc(OCC(O)CNCc2cccnc2)cnc1C(NC(=O)c1cc2cccc(C)c2[nH]1)C1CC1` (stereo not drawn) [compound 430], the figures for the IC50 in assay [1] and in assay [2] were 600 nM and 4400 nM, respectively.

Regarding `Cc1cccc2cc(C(=O)NC3CC(=O)NCC(c4ccccc4)C3)[nH]c12` (stereo not drawn) [compound 617], the IC50 in assay [1] is more than 200000 nM; in assay [2] it was more than 25000 nM.

Consider `Cc1ccc(F)c2cc(C(=O)Nc3cc(Cl)cc(N4CCC(CCCN5CCOCC5)CC4)c3)[nH]c12` [compound 188], for which the IC50 stood at 20 nM in assay [1] and 400 nM in assay [2] (Homo sapiens).

Take `Cc1ccc(F)c2cc(C(=O)Nc3cccc(-c4ccc5cncn5c4)c3)[nH]c12` [compound 278]: the results for the IC50 in assay [1] and in assay [2] were 70 nM and 900 nM, respectively.

`Cc1ccc(F)c2cc(C(=O)Nc3cc(F)cc(C4CCN(C5CCN(C)C5=O)C4)c3)[nH]c12` (stereo not drawn) [compound 230]: the IC50 in assay [1] came to 40 nM; in assay [2] it was 500 nM.

In the case of `CC(=O)N1CCN(C2CCC(NC(=O)c3cc4c(F)ccc(C)c4[nH]3)C2)CC1` (stereo not drawn) [compound 376], the IC50 in assay [1] is more than 10000 nM; in assay [2] it was more than 2000 nM.
